Results taken from ChEMBL document CHEMBL1201862, “PubChem BioAssay data set” (2004).
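Exposure lasted 48 hours, with cells grown in 96-well plates and compounds tested at five concentrations. GI50 marks 50% less growth.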 The source made the active and inactive calls. No stated cut-off is given here; in the data, active = GI50 up to about 1.1 µM and inactive = higher.

How the values were obtained:
Assay in all cases: growth of human tumour cells (NCI), 48 h
786-0 = test system: 786-0
A498 = test system: A498
A549 = test system: A549
ACHN = test system: ACHN
BT-549 = test system: BT-549
CAKI-1 = test system: CAKI-1
CCRF-CEM = test system: CCRF-CEM
COLO 205 = test system: COLO 205
DU-145 = test system: DU-145
EKVX = test system: EKVX
HCC 2998 = test system: HCC 2998
HCT-116 = test system: HCT-116
HCT-15 = test system: HCT-15
HL-60 = test system: HL-60
HOP-62 = test system: HOP-62
HOP-92 = test system: HOP-92
HT-29 = test system: HT-29
Hs-578T = test system: Hs-578T
IGROV-1 = test system: IGROV-1
K562 = test system: K562
KM12 = test system: KM12
LOX IMVI = test system: LOX IMVI
M14 = test system: M14
MCF7 = test system: MCF7
MDA-MB-231 = test system: MDA-MB-231
MDA-MB-435 = test system: MDA-MB-435
MDA-N = test system: MDA-N
MOLT-4 = test system: MOLT-4
Malme-3M = test system: Malme-3M
NCI-H226 = test system: NCI-H226
NCI-H23 = test system: NCI-H23
NCI-H460 = test system: NCI-H460
NCI-H522 = test system: NCI-H522
NCI/ADR-RES = test system: NCI/ADR-RES
OVCAR-3 = test system: OVCAR-3
OVCAR-4 = test system: OVCAR-4
OVCAR-8 = test system: OVCAR-8
PC-3 = test system: PC-3
RPMI-8226 = test system: RPMI-8226
RXF 393 = test system: RXF 393
SF-268 = test system: SF-268
SF-295 = test system: SF-295
SF-539 = test system: SF-539
SK-MEL-28 = test system: SK-MEL-28
SK-MEL-5 = test system: SK-MEL-5
SK-OV-3 = test system: SK-OV-3
SN12C = test system: SN12C
SNB-19 = test system: SNB-19
SNB-75 = test system: SNB-75
SR = test system: SR
SW-620 = test system: SW-620
T47D = test system: T47D
TK-10 = test system: TK-10
U-251 = test system: U-251
UACC-257 = test system: UACC-257
UACC-62 = test system: UACC-62
UO-31 = test system: UO-31
OVCAR-5 = test system: OVCAR-5
SK-MEL-2 = test system: SK-MEL-2

O=[N+]([O-])C(/C=C(\Cl)[N+](=O)[O-])=C1Nc2ccccc2N1 was tested, and the GI50 (786-0) was 52.4 µM (inactive), the GI50 (A498) was 24.8 µM (inactive) and the GI50 (A549) was > 100 µM (inactive). The GI50 (ACHN) was 44.4 µM (inactive), the GI50 (BT-549) was 42 µM (inactive) and the GI50 (CAKI-1) was 22.1 µM (inactive). The GI50 (CCRF-CEM) was 34.8 µM (inactive), the GI50 (COLO 205) was 30.5 µM (inactive) and the GI50 (DU-145) was > 100 µM (inactive). For the same molecule, the GI50 (EKVX) was 48.5 µM (inactive), the GI50 (HCC 2998) was > 100 µM (inactive) and the GI50 (HCT-116) was 50.1 µM (inactive). The GI50 (HCT-15) was 59.4 µM, the GI50 (HL-60) was 45.8 µM (inactive) and the GI50 (HOP-62) was > 100 µM (inactive). The GI50 (HOP-92) was 18.3 µM (inactive), the GI50 (HT-29) was 39.6 µM (inactive) and the GI50 (Hs-578T) was 48.9 µM (inactive). For the same molecule, the GI50 (IGROV-1) was 64.7 µM (inactive), the GI50 (K562) was 79.6 µM (inactive) and the GI50 (KM12) was > 100 µM (inactive). For the same molecule, the GI50 (LOX IMVI) was 34.8 µM (inactive), the GI50 (M14) was 60.8 µM (inactive) and the GI50 (MCF7) was 39.6 µM (inactive). For the same molecule, the GI50 (MDA-MB-231) was 36.7 µM (inactive), the GI50 (MDA-MB-435) was 42.6 µM (inactive) and the GI50 (MDA-N) was 59.8 µM (inactive). For the same molecule, the GI50 (MOLT-4) was 37.1 µM (inactive), the GI50 (Malme-3M) was 42.2 µM (inactive) and the GI50 (NCI-H226) was 43.3 µM (inactive). The GI50 (NCI-H23) was > 100 µM (inactive), the GI50 (NCI-H460) was > 100 µM (inactive) and the GI50 (NCI-H522) was > 100 µM (inactive). The GI50 (NCI/ADR-RES) was > 100 µM (inactive), the GI50 (OVCAR-3) was 90.2 µM (inactive) and the GI50 (OVCAR-4) was > 100 µM (inactive). The GI50 (OVCAR-8) was 56.6 µM (inactive), the GI50 (PC-3) was 46.3 µM (inactive) and the GI50 (RPMI-8226) was 44.3 µM (inactive). The GI50 (RXF 393) was 38.1 µM (inactive), the GI50 (SF-268) was 57.1 µM (inactive) and the GI50 (SF-295) was 35.4 µM (inactive). For the same molecule, the GI50 (SF-539) was 35.5 µM (inactive), the GI50 (SK-MEL-28) was 42.3 µM (inactive) and the GI50 (SK-MEL-5) was 70.8 µM (inactive). For the same molecule, the GI50 (SK-OV-3) was 42.4 µM (inactive), the GI50 (SN12C) was 39.7 µM (inactive) and the GI50 (SNB-19) was 75.5 µM (inactive). For the same molecule, the GI50 (SNB-75) was 17.3 µM (inactive), the GI50 (SR) was 29.6 µM (inactive) and the GI50 (SW-620) was > 100 µM (inactive). The GI50 (T47D) was 17.9 µM (inactive), the GI50 (TK-10) was > 100 µM (inactive) and the GI50 (U-251) was 43.3 µM (inactive). The GI50 (UACC-257) was 33.3 µM (inactive), the GI50 (UACC-62) was 33.4 µM (inactive) and the GI50 (UO-31) was 42.6 µM (inactive).

In the case of NS(=O)(=O)c1cc(Cl)c(NC(=S)NC(=O)Nc2ccc(Cl)c(Cl)c2)c(Cl)c1, the GI50 (786-0) is reported as 39 µM (inactive), the GI50 (A498) is reported as 26.7 µM (inactive) and the GI50 (A549) is reported as 30.5 µM (inactive). For the same molecule, the GI50 (ACHN) was 34.1 µM (inactive), the GI50 (BT-549) was 55.2 µM (inactive) and the GI50 (CAKI-1) was 76.4 µM (inactive). The GI50 (CCRF-CEM) was 6.97 µM (inactive), the GI50 (COLO 205) was 18 µM (inactive) and the GI50 (DU-145) was 67 µM (inactive). The GI50 (EKVX) was 28.4 µM (inactive), the GI50 (HCC 2998) was 59.2 µM (inactive) and the GI50 (HCT-116) was 35.7 µM (inactive). The GI50 (HCT-15) was 40.9 µM, the GI50 (HL-60) was 21.8 µM (inactive) and the GI50 (HOP-62) was > 100 µM (inactive). For the same molecule, the GI50 (HOP-92) was 55.7 µM (inactive), the GI50 (HT-29) was 46.8 µM (inactive) and the GI50 (Hs-578T) was > 100 µM (inactive). For the same molecule, the GI50 (IGROV-1) was 81.1 µM (inactive), the GI50 (K562) was 35.2 µM (inactive) and the GI50 (KM12) was 34.7 µM (inactive). The GI50 (LOX IMVI) was 40.3 µM (inactive), the GI50 (M14) was 27.5 µM (inactive) and the GI50 (MCF7) was 20.4 µM (inactive). For the same molecule, the GI50 (MDA-MB-231) was 50.1 µM (inactive), the GI50 (MDA-MB-435) was 32.7 µM (inactive) and the GI50 (MDA-N) was 33.6 µM (inactive). For the same molecule, the GI50 (MOLT-4) was 30.5 µM (inactive), the GI50 (Malme-3M) was 68.1 µM (inactive) and the GI50 (NCI-H226) was 30.8 µM (inactive). For the same molecule, the GI50 (NCI-H23) was 31.6 µM (inactive), the GI50 (NCI-H460) was 30.2 µM (inactive) and the GI50 (NCI-H522) was 26.1 µM (inactive). For the same molecule, the GI50 (NCI/ADR-RES) was 37.4 µM (inactive), the GI50 (OVCAR-3) was 39.6 µM (inactive) and the GI50 (OVCAR-4) was 47.4 µM (inactive). For the same molecule, the GI50 (OVCAR-5) was 80.5 µM (inactive), the GI50 (OVCAR-8) was 47.6 µM (inactive) and the GI50 (PC-3) was 33.9 µM (inactive). For the same molecule, the GI50 (RXF 393) was 41.3 µM (inactive), the GI50 (SF-268) was 56.8 µM (inactive) and the GI50 (SF-295) was 37.8 µM (inactive). For the same molecule, the GI50 (SF-539) was 28.6 µM (inactive), the GI50 (SK-MEL-28) was 84.3 µM (inactive) and the GI50 (SK-MEL-2) was 25.5 µM (inactive). For the same molecule, the GI50 (SK-MEL-5) was 18.3 µM (inactive), the GI50 (SK-OV-3) was 77.4 µM (inactive) and the GI50 (SN12C) was 36.8 µM (inactive). The GI50 (SNB-19) was 42.9 µM (inactive), the GI50 (SNB-75) was 59.8 µM (inactive) and the GI50 (SR) was 36.2 µM (inactive). The GI50 (SW-620) was 58.1 µM (inactive), the GI50 (T47D) was 23.8 µM (inactive) and the GI50 (TK-10) was 47.4 µM (inactive). For the same molecule, the GI50 (U-251) was 37.2 µM (inactive), the GI50 (UACC-257) was 29.9 µM (inactive) and the GI50 (UACC-62) was 23.1 µM (inactive). For the same molecule, the GI50 (UO-31) was 44.1 µM (inactive).
